According to PubChem BioAssay AID2060885 (Molecular Pharmacology Branch, DTP, NCI, 2025):

Tested on: NCI-H23 complex spheroids with HUVEC/MSC, viability
Experiment: Anticancer human tumor NCI-H23 cell line growth inhibition [RAS];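 note: spheroids exposed to compound for 7 days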;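 for viability, T/C: 100% = DMSO vehicle control viability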
Conditions: for IC50: curve of first compound; for viability, T/C: stronger effect = lower value
In short: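 Tumour cells grown as complex spheroids with HUVEC endothelial cells and mesenchymal stem cells, treated with RAS pathway inhibitor combinations. Each agent spans half-log steps from near clinical Cmax, or 10 microM where Cmax is unknown.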

[1] = second compound 0.000949 µM, first compound 0.0316 µM
[2] = second compound 0.000949 µM, first compound 0.1 µM
[3] = second compound 0.000949 µM, first compound 0.316 µM
[4] = second compound 0.000949 µM, first compound 1 µM
[5] = second compound 0.003 µM, first compound 0.0316 µM
[6] = second compound 0.003 µM, first compound 0.1 µM
[7] = second compound 0.003 µM, first compound 0.316 µM
[8] = second compound 0.003 µM, first compound 1 µM
[9] = second compound 0.00949 µM, first compound 0.0316 µM
[10] = second compound 0.00949 µM, first compound 0.1 µM
[11] = second compound 0.00949 µM, first compound 0.316 µM
[12] = second compound 0.00949 µM, first compound 1 µM
[13] = second compound 0.03 µM, first compound 0.0316 µM
[14] = second compound 0.03 µM, first compound 0.1 µM
[15] = second compound 0.03 µM, first compound 0.316 µM
[16] = second compound 0.03 µM, first compound 1 µM
[17] = second compound 0.0949 µM, first compound 0.0316 µM
[18] = second compound 0.0949 µM, first compound 0.1 µM
[19] = second compound 0.0949 µM, first compound 0.316 µM
[20] = second compound 0.0949 µM, first compound 1 µM
[21] = second compound 0.3 µM, first compound 0.0316 µM
[22] = second compound 0.3 µM, first compound 0.1 µM
[23] = second compound 0.3 µM, first compound 0.316 µM
[24] = second compound 0.3 µM, first compound 1 µM

Compound: CCN1CCN(Cc2ccc(Nc3ncc(F)c(-c4cc(F)c5nc(C)n(C(C)C)c5c4)n3)nc2)CC1 + CCn1c(-c2cccnc2C(C)OC)c2c3cc(ccc31)N1CCOC(CC(NC(=O)C(C(C)C)N(C)C(=O)C3(F)CCN(C(=O)C#CC(C)(C)N(C)C)CC3)C(=O)N3CCCC(N3)C(=O)OCC(C)(C)C2)C1
- IC50 (second compound 0.000949 µM): < 3.16 nM
- IC50 (second compound 0.003 µM): < 3.16 nM
- IC50 (second compound 0.00949 µM): < 3.16 nM
- IC50 (second compound 0.03 µM): < 3.16 nM
- IC50 (second compound 0.0949 µM): < 3.16 nM
- IC50 (second compound 0.3 µM): < 3.16 nM
- viability, T/C (second compound 0.000949 µM, first compound 0.00316 µM): 27.6%
- viability, T/C (second compound 0.000949 µM, first compound 0.01 µM): 26.4%
- viability, T/C [1]: 14%
- viability, T/C [2]: 15.9%
- viability, T/C [3]: 14.6%
- viability, T/C [4]: 10.6%
- viability, T/C (second compound 0.003 µM, first compound 0.00316 µM): 28.6%
- viability, T/C (second compound 0.003 µM, first compound 0.01 µM): 20.8%
- viability, T/C [5]: 16.3%
- viability, T/C [6]: 15%
- viability, T/C [7]: 12.9%
- viability, T/C [8]: 10.8%
- viability, T/C (second compound 0.00949 µM, first compound 0.00316 µM): 26.9%
- viability, T/C (second compound 0.00949 µM, first compound 0.01 µM): 21.9%
- viability, T/C [9]: 16%
- viability, T/C [10]: 14.2%
- viability, T/C [11]: 12.3%
- viability, T/C [12]: 11.5%
- viability, T/C (second compound 0.03 µM, first compound 0.00316 µM): 30.6%
- viability, T/C (second compound 0.03 µM, first compound 0.01 µM): 21.5%
- viability, T/C [13]: 18%
- viability, T/C [14]: 12.5%
- viability, T/C [15]: 11.2%
- viability, T/C [16]: 13.2%
- viability, T/C (second compound 0.0949 µM, first compound 0.00316 µM): 23.4%
- viability, T/C (second compound 0.0949 µM, first compound 0.01 µM): 22.1%
- viability, T/C [17]: 15.8%
- viability, T/C [18]: 13.2%
- viability, T/C [19]: 10.2%
- viability, T/C [20]: 14.9%
- viability, T/C (second compound 0.3 µM, first compound 0.00316 µM): 22.2%
- viability, T/C (second compound 0.3 µM, first compound 0.01 µM): 19.3%
- viability, T/C [21]: 14.2%
- viability, T/C [22]: 12.1%
- viability, T/C [23]: 12%
- viability, T/C [24]: 14.2%

Compound: C[C@@H](NC(=O)c1ncnc(N)c1Cl)c1ncc(C(=O)Nc2cc(C(F)(F)F)c(Cl)cn2)s1 + CCn1c(-c2cccnc2C(C)OC)c2c3cc(ccc31)N1CCOC(CC(NC(=O)C(C(C)C)N(C)C(=O)C3(F)CCN(C(=O)C#CC(C)(C)N(C)C)CC3)C(=O)N3CCCC(N3)C(=O)OCC(C)(C)C2)C1
- IC50 (second compound 0.000949 µM): < 31.6 nM
- IC50 (second compound 0.003 µM): < 31.6 nM
- IC50 (second compound 0.00949 µM): < 31.6 nM
- IC50 (second compound 0.03 µM): < 31.6 nM
- IC50 (second compound 0.0949 µM): < 31.6 nM
- IC50 (second compound 0.3 µM): < 31.6 nM
- viability, T/C [1]: 36.4%
- viability, T/C [2]: 32.5%
- viability, T/C [3]: 24.2%
- viability, T/C [4]: 34.2%
- viability, T/C (second compound 0.000949 µM, first compound 3.16 µM): 32.5%
- viability, T/C (second compound 0.000949 µM, first compound 10 µM): 25.4%
- viability, T/C [5]: 33%
- viability, T/C [6]: 31.1%
- viability, T/C [7]: 29.7%
- viability, T/C [8]: 33.3%
- viability, T/C (second compound 0.003 µM, first compound 3.16 µM): 31.2%
- viability, T/C (second compound 0.003 µM, first compound 10 µM): 25.3%
- viability, T/C [9]: 32.8%
- viability, T/C [10]: 27.5%
- viability, T/C [11]: 30.9%
- viability, T/C [12]: 30.9%
- viability, T/C (second compound 0.00949 µM, first compound 3.16 µM): 30.8%
- viability, T/C (second compound 0.00949 µM, first compound 10 µM): 24.5%
- viability, T/C [13]: 30.7%
- viability, T/C [14]: 30.1%
- viability, T/C [15]: 28.1%
- viability, T/C [16]: 29.3%
- viability, T/C (second compound 0.03 µM, first compound 3.16 µM): 26.9%
- viability, T/C (second compound 0.03 µM, first compound 10 µM): 27.9%
- viability, T/C [17]: 25.8%
- viability, T/C [18]: 29.3%
- viability, T/C [19]: 31.6%
- viability, T/C [20]: 28.6%
- viability, T/C (second compound 0.0949 µM, first compound 3.16 µM): 23.6%
- viability, T/C (second compound 0.0949 µM, first compound 10 µM): 28.4%
- viability, T/C [21]: 27.3%
- viability, T/C [22]: 27.4%
- viability, T/C [23]: 31%
- viability, T/C [24]: 23.1%
- viability, T/C (second compound 0.3 µM, first compound 3.16 µM): 26.3%
- viability, T/C (second compound 0.3 µM, first compound 10 µM): 27.4%
